Results reported in patent US20140057954A1, “CHEMICAL COMPOSITION” (FOREST LABORATORIES HOLDINGS LTD., priority 2012, published 2014).
In brackets after ≈: the same amount, converted by molar mass.

Columns and labels:
[1] = test system: patients with mild to moderate hypertension; assay: Population PK/PD analysis (Emax model) of nebivolol plasma concentration versus mean sitting DBP; format: in vivo, human
Procedure: The study involved first determining the relationship between nebivolol plasma concentration and the therapeutic diastolic blood pressure (DBP)-reducing effect by nebivolol when administered alone. A population PK/PD analysis was performed to assess the relationship between nebivolol plasma concentration and its therapeutic DBP-reducing effect. The analysis utilized PK/PD data that was collected from patients with mild to moderate hypertension following a Phase 3, double-blind, placebo-controlled, multicenter study. During the study, patients were randomized to 7 parallel treatment arms wherein the patient received either a placebo or any of 6 different doses of nebivolol (between 1.25 and 40 mg). The patients were also stratified across all treatment arms by covariates of race (African American vs non-African American), age (<65 vs≧65 years), gender, diabetes status (history of diabetes mellitus vs no history of diabetes mellitus), and by metabolism of nebivolol (PM vs EM of CYP 2D6). Blood pressure data was collected from each patient initially and at days 28 and 84 of treatment. The study results were refined and updated using nonlinear mixed-effects modeling (NONMEM) software, version VII, with first-order conditional estimation/interaction method. […] Moreover, the EC50 (half maximal effective concentration) was determined.

[2] = Crossover trial of nebivolol exposure, alone versus in free combination with valsartan, once daily for 7 days; format: in vivo, human
Procedure: […], 3-way crossover trial was performed in healthy subjects to assess the pharmacokinetic (pK) and pharmacodynamic (pD) impact of administered valsartan on nebivolol.
28 subjects aged 19-45 were randomized to the following once-daily treatments for 7 days under fasted conditions: (A) nebivolol alone (20 mg tablet) and (B) concomitant nebivolol 20 mg+valsartan 320 mg in free combination. Blood samples were collected from each subject for pK analysis at the following time points: 0 hour (predose) on Days 1, 14, and 27 and at 0 hour (predose) and 1, 2, 4, 6, 10, 16, 24, 36, and 48 hours postdose on Days 7, 20, and 33.
The bioanalytical procedure used to measure plasma concentrations of nebivolol was a LC/MS/MS (liquid chromatography/tandem mass spectrometry) method.
Among the pK parameters measured were AUC0-τ,ss (area under the plasma concentration versus time curve from time 0 to the dosing interval, τ, at steady state); Cdmax,ss (maximum plasma drug concentration at steady state); Tmax,ss (time of maximum plasma drug concentration following drug administration at steady state); Cmin,ss minimum plasma drug concentration at steady state); Cav,ss (average plasma drug concentration at steady state); and CL/F (apparent total clearance from plasma after oral administration). These pK parameters were derived from plasma concentrations using noncompartmental analysis with the software program SAS (version 9.1.3). In addition, the 2-sided 90% confidence interval (CI) for the ratio of geometric means of Cmax and AUC0-τ,ss between nebivolol coadministered with valsartan and nebivolol alone were constructed.

[3] = coadministered with valsartan versus nebivolol alone

EC50 ([1]; Homo sapiens, Emax model, mean sitting DBP, Phase 3 data, nebivolol 1.25-40 mg, read-out: EC50 estimate of d,l-nebivolol concentrations (DBP PK/PD model)): 0.0179 ng/mL (≈ 0.0441 nM)
decrease in mean nebivolol AUC0-τ [2, 3]: 15-20%
decrease in mean nebivolol Cmax [2, 3]: 40-50%
AUC ([2]; human, plasma, oral, 20 mg nebivolol once daily for 7 days, alone or with 320 mg valsartan, healthy subjects, fasted, steady state, read-out: nebivolol AUC0-τ, Arithmetic Mean): 41.5 ng·h/mL
Cmax ([2]; human, plasma, oral, 20 mg nebivolol once daily for 7 days, alone or with 320 mg valsartan, healthy subjects, fasted, steady state, read-out: nebivolol Cmax, Arithmetic Mean): 8.02 ng/mL
Cmax and CSS,max reduction ([2]; in the presence of valsartan): approximately 50%
mean reduction in nebivolol Cavg and CSS,avg ([2]; in the presence of valsartan): ~20%
Structure (SMILES): OC(CNCC(O)C1CCc2cc(F)ccc2O1)C1CCc2cc(F)ccc2O1 (centres unmarked) [nebivolol]
Emax in DBP reduction ([1]; after correction for the placebo effect): approximately 5 mm Hg
